# Measured values reported in ChEMBL document CHEMBL1124438, “Analysis of the in vitro antiviral activity of certain ribonucleosides against parainfluenza virus using a novel computer aided receptor modeling procedure” (1989).
# Test system: Human alphaherpesvirus 2
# Assay: Virus rating of against herpes simplex virus type 2
# Format: functional
row,SMILES,Rating
1,CSc1ncnc2c1ccn2[C@@H]1O[C@H](CO)[C@@H](O)[C@H]1O,0
2,O=C1N=CN=C2C([C@@H]3O[C@H](CO)[C@@H](O)[C@H]3O)=NNC12 (stereo not given in full),0
3,OC[C@H]1O[C@@H](C2=NNC3C(=S)N=CN=C23)[C@H](O)[C@@H]1O (stereo not given in full),0
4,CSc1ncnc2c([C@@H]3O[C@H](CO)[C@@H](O)[C@H]3O)n[nH]c12,0.3
5,COc1c([C@@H]2O[C@H](CO)[C@@H](O)[C@H]2O)nn(C)c1C(N)=O,0.3
6,NC(=O)C1NN=C([C@@H]2O[C@H](CO)[C@@H](O)[C@H]2O)C1=O (stereo not given in full),1
7,NC(=O)c1ccnc([C@@H]2O[C@H](CO)[C@@H](O)[C@H]2O)n1,0
8,O=c1[nH]c(=O)c2[nH]nc([C@@H]3O[C@H](CO)[C@@H](O)[C@H]3O)c2[nH]1,0.12
9,Nc1[nH]c(=O)nc2c([C@@H]3O[C@H](CO)[C@@H](O)[C@H]3O)n[nH]c12,0.75
10,Cn1nc([C@@H]2O[C@H](CO)[C@@H](O)[C@H]2O)c2ncnc(N)c21,0.2
11,CN1C=NC(N)=C2NNC([C@@H]3O[C@H](CO)[C@@H](O)[C@H]3O)=C21,0
12,Cn1cnc2c([C@@H]3O[C@H](CO)[C@@H](O)[C@H]3O)nnc-2c1N,0.88
13,Nc1cc2c(ncn2[C@@H]2O[C@H](CO)[C@@H](O)[C@H]2O)c(=O)[nH]1,1.06
14,CSc1ncnc2c1ncn2[C@@H]1O[C@H](CO)[C@@H](O)[C@H]1O,1.25
15,OC[C@H]1OC(n2ncc3c(S)ncnc32)[C@H](O)[C@@H]1O (stereo not given in full),0
16,CSc1ncnc2c1cnn2C1O[C@H](CO)[C@@H](O)[C@H]1O (stereo not given in full),0
17,Nc1nn(C2O[C@H](CO)[C@@H](O)[C@H]2O)c2nc[nH]c(=O)c12 (stereo not given in full),0
18,OC[C@H]1OC(n2cc3c(O)nc(Cl)nc3n2)[C@H](O)[C@@H]1O (stereo not given in full),0
19,Nc1nc(Cl)cc2c1ncn2C1O[C@H](CO)[C@@H](O)[C@H]1O (stereo not given in full),0
20,Nc1nc(Cl)nc2c1cnn2C1O[C@H](CO)[C@@H](O)[C@H]1O (stereo not given in full),0
21,NC(=O)c1cn(C2O[C@H](CO)[C@@H](O)[C@H]2O)[nH]c1=O (stereo not given in full),0
22,Nc1ncnc2c([C@@H]3O[C@H](CO)[C@@H](O)[C@H]3O)[nH]nc12 [FORMYCIN],0.2
23,NC(=O)c1ncn([C@@H]2O[C@H](CO)[C@@H](O)[C@H]2O)n1 [RIBAVIRIN],1.4
24,N=C(N)c1ncn([C@@H]2O[C@H](CO)[C@@H](O)[C@H]2O)n1 [TARIBAVIRIN],0
25,NC(=O)c1csc([C@@H]2O[C@H](CO)[C@@H](O)[C@H]2O)n1 [TIAZOFURIN],1.19

# Test system: Human rhinovirus 1A
# Assay: Virus rating against rhinovirus type 1A
# Format: functional
row,SMILES,Rating
1,CSc1ncnc2c1ccn2[C@@H]1O[C@H](CO)[C@@H](O)[C@H]1O,0.6
2,O=C1N=CN=C2C([C@@H]3O[C@H](CO)[C@@H](O)[C@H]3O)=NNC12 (stereo not given in full),0.3
3,OC[C@H]1O[C@@H](C2=NNC3C(=S)N=CN=C23)[C@H](O)[C@@H]1O (stereo not given in full),0.9
4,CSc1ncnc2c([C@@H]3O[C@H](CO)[C@@H](O)[C@H]3O)n[nH]c12,0
5,COc1c([C@@H]2O[C@H](CO)[C@@H](O)[C@H]2O)nn(C)c1C(N)=O,0
6,NC(=O)C1NN=C([C@@H]2O[C@H](CO)[C@@H](O)[C@H]2O)C1=O (stereo not given in full),0.6
7,NC(=O)c1ccnc([C@@H]2O[C@H](CO)[C@@H](O)[C@H]2O)n1,0
8,O=c1[nH]c(=O)c2[nH]nc([C@@H]3O[C@H](CO)[C@@H](O)[C@H]3O)c2[nH]1,0
9,Nc1[nH]c(=O)nc2c([C@@H]3O[C@H](CO)[C@@H](O)[C@H]3O)n[nH]c12,0
10,Cn1nc([C@@H]2O[C@H](CO)[C@@H](O)[C@H]2O)c2ncnc(N)c21,0
11,CN1C=NC(N)=C2NNC([C@@H]3O[C@H](CO)[C@@H](O)[C@H]3O)=C21,0
12,Cn1cnc2c([C@@H]3O[C@H](CO)[C@@H](O)[C@H]3O)nnc-2c1N,0
13,Nc1cc2c(ncn2[C@@H]2O[C@H](CO)[C@@H](O)[C@H]2O)c(=O)[nH]1,1
14,CSc1ncnc2c1ncn2[C@@H]1O[C@H](CO)[C@@H](O)[C@H]1O,0.8
15,OC[C@H]1OC(n2ncc3c(S)ncnc32)[C@H](O)[C@@H]1O (stereo not given in full),0
16,CSc1ncnc2c1cnn2C1O[C@H](CO)[C@@H](O)[C@H]1O (stereo not given in full),0.6
17,Nc1nn(C2O[C@H](CO)[C@@H](O)[C@H]2O)c2nc[nH]c(=O)c12 (stereo not given in full),0
18,OC[C@H]1OC(n2cc3c(O)nc(Cl)nc3n2)[C@H](O)[C@@H]1O (stereo not given in full),0
19,Nc1nc(Cl)cc2c1ncn2C1O[C@H](CO)[C@@H](O)[C@H]1O (stereo not given in full),0
20,Nc1nc(Cl)nc2c1cnn2C1O[C@H](CO)[C@@H](O)[C@H]1O (stereo not given in full),0
21,NC(=O)c1cn(C2O[C@H](CO)[C@@H](O)[C@H]2O)[nH]c1=O (stereo not given in full),0
22,Nc1ncnc2c([C@@H]3O[C@H](CO)[C@@H](O)[C@H]3O)[nH]nc12 [FORMYCIN],0.1
23,O=c1[nH]cnc2c1ccn2[C@@H]1O[C@H](CO)[C@@H](O)[C@H]1O [IMMUNICILLIN H],0
24,NC(=O)c1ncn([C@@H]2O[C@H](CO)[C@@H](O)[C@H]2O)n1 [RIBAVIRIN],0.7
25,N=C(N)c1ncn([C@@H]2O[C@H](CO)[C@@H](O)[C@H]2O)n1 [TARIBAVIRIN],0.2
26,NC(=O)c1csc([C@@H]2O[C@H](CO)[C@@H](O)[C@H]2O)n1 [TIAZOFURIN],0

# Test system: Human respirovirus 3
# Assay: Virus rating against parainfluenza virus type 3
# Format: functional
row,SMILES,Rating
1,CSc1ncnc2c1ccn2[C@@H]1O[C@H](CO)[C@@H](O)[C@H]1O,0.9
2,O=C1N=CN=C2C([C@@H]3O[C@H](CO)[C@@H](O)[C@H]3O)=NNC12 (stereo not given in full),0.94
3,OC[C@H]1O[C@@H](C2=NNC3C(=S)N=CN=C23)[C@H](O)[C@@H]1O (stereo not given in full),1.1
4,CSc1ncnc2c([C@@H]3O[C@H](CO)[C@@H](O)[C@H]3O)n[nH]c12,1.35
5,COc1c([C@@H]2O[C@H](CO)[C@@H](O)[C@H]2O)nn(C)c1C(N)=O,1.65
6,NC(=O)C1NN=C([C@@H]2O[C@H](CO)[C@@H](O)[C@H]2O)C1=O (stereo not given in full),1.65
7,NC(=O)c1ccnc([C@@H]2O[C@H](CO)[C@@H](O)[C@H]2O)n1,0.25
8,O=c1[nH]c(=O)c2[nH]nc([C@@H]3O[C@H](CO)[C@@H](O)[C@H]3O)c2[nH]1,0.68
9,Nc1[nH]c(=O)nc2c([C@@H]3O[C@H](CO)[C@@H](O)[C@H]3O)n[nH]c12,1.22
10,Cn1nc([C@@H]2O[C@H](CO)[C@@H](O)[C@H]2O)c2ncnc(N)c21,0.86
11,CN1C=NC(N)=C2NNC([C@@H]3O[C@H](CO)[C@@H](O)[C@H]3O)=C21,1.28
12,Cn1cnc2c([C@@H]3O[C@H](CO)[C@@H](O)[C@H]3O)nnc-2c1N,1.16
13,Cn1nc([C@@H]2O[C@H](CO)[C@@H](O)[C@H]2O)c2nc(=O)[nH]c(N)c21,0.88
14,Nc1cc2c(ncn2[C@@H]2O[C@H](CO)[C@@H](O)[C@H]2O)c(=O)[nH]1,0.8
15,CSc1ncnc2c1ncn2[C@@H]1O[C@H](CO)[C@@H](O)[C@H]1O,2.2
16,OC[C@H]1O[C@@H](n2ccc3c(S)ncnc32)[C@H](O)[C@@H]1O,1.15
17,OC[C@H]1OC(n2ncc3c(S)ncnc32)[C@H](O)[C@@H]1O (stereo not given in full),0.7
18,CSc1ncnc2c1cnn2C1O[C@H](CO)[C@@H](O)[C@H]1O (stereo not given in full),1.05
19,Nc1nn(C2O[C@H](CO)[C@@H](O)[C@H]2O)c2nc[nH]c(=O)c12 (stereo not given in full),0.28
20,OC[C@H]1OC(n2cc3c(O)nc(Cl)nc3n2)[C@H](O)[C@@H]1O (stereo not given in full),0.25
21,Nc1nc(Cl)cc2c1ncn2C1O[C@H](CO)[C@@H](O)[C@H]1O (stereo not given in full),0.35
22,Nc1nc(Cl)nc2c1cnn2C1O[C@H](CO)[C@@H](O)[C@H]1O (stereo not given in full),0.15
23,NC(=O)c1cn(C2O[C@H](CO)[C@@H](O)[C@H]2O)[nH]c1=O (stereo not given in full),0.15
24,Nc1ncnc2c([C@@H]3O[C@H](CO)[C@@H](O)[C@H]3O)[nH]nc12 [FORMYCIN],1.4
25,O=c1[nH]cnc2c1ccn2[C@@H]1O[C@H](CO)[C@@H](O)[C@H]1O [IMMUNICILLIN H],0.08
26,NC(=O)c1ncn([C@@H]2O[C@H](CO)[C@@H](O)[C@H]2O)n1 [RIBAVIRIN],1.3
27,N=C(N)c1ncn([C@@H]2O[C@H](CO)[C@@H](O)[C@H]2O)n1 [TARIBAVIRIN],1.2
28,NC(=O)c1csc([C@@H]2O[C@H](CO)[C@@H](O)[C@H]2O)n1 [TIAZOFURIN],1.3

# Test system: Human adenovirus 2
# Assay: Virus rating against adenovirus type 2
# Format: functional
row,SMILES,Rating
1,CSc1ncnc2c1ccn2[C@@H]1O[C@H](CO)[C@@H](O)[C@H]1O,0
2,O=C1N=CN=C2C([C@@H]3O[C@H](CO)[C@@H](O)[C@H]3O)=NNC12 (stereo not given in full),0
3,OC[C@H]1O[C@@H](C2=NNC3C(=S)N=CN=C23)[C@H](O)[C@@H]1O (stereo not given in full),1
4,CSc1ncnc2c([C@@H]3O[C@H](CO)[C@@H](O)[C@H]3O)n[nH]c12,0.8
5,COc1c([C@@H]2O[C@H](CO)[C@@H](O)[C@H]2O)nn(C)c1C(N)=O,1
6,NC(=O)C1NN=C([C@@H]2O[C@H](CO)[C@@H](O)[C@H]2O)C1=O (stereo not given in full),0
7,NC(=O)c1ccnc([C@@H]2O[C@H](CO)[C@@H](O)[C@H]2O)n1,0
8,O=c1[nH]c(=O)c2[nH]nc([C@@H]3O[C@H](CO)[C@@H](O)[C@H]3O)c2[nH]1,0
9,Nc1[nH]c(=O)nc2c([C@@H]3O[C@H](CO)[C@@H](O)[C@H]3O)n[nH]c12,0
10,Cn1nc([C@@H]2O[C@H](CO)[C@@H](O)[C@H]2O)c2ncnc(N)c21,0
11,CN1C=NC(N)=C2NNC([C@@H]3O[C@H](CO)[C@@H](O)[C@H]3O)=C21,0
12,Cn1cnc2c([C@@H]3O[C@H](CO)[C@@H](O)[C@H]3O)nnc-2c1N,0
13,Nc1cc2c(ncn2[C@@H]2O[C@H](CO)[C@@H](O)[C@H]2O)c(=O)[nH]1,0.2
14,CSc1ncnc2c1ncn2[C@@H]1O[C@H](CO)[C@@H](O)[C@H]1O,0
15,OC[C@H]1OC(n2ncc3c(S)ncnc32)[C@H](O)[C@@H]1O (stereo not given in full),0
16,CSc1ncnc2c1cnn2C1O[C@H](CO)[C@@H](O)[C@H]1O (stereo not given in full),0
17,Nc1nn(C2O[C@H](CO)[C@@H](O)[C@H]2O)c2nc[nH]c(=O)c12 (stereo not given in full),0
18,OC[C@H]1OC(n2cc3c(O)nc(Cl)nc3n2)[C@H](O)[C@@H]1O (stereo not given in full),0
19,Nc1nc(Cl)cc2c1ncn2C1O[C@H](CO)[C@@H](O)[C@H]1O (stereo not given in full),0
20,Nc1nc(Cl)nc2c1cnn2C1O[C@H](CO)[C@@H](O)[C@H]1O (stereo not given in full),0
21,NC(=O)c1cn(C2O[C@H](CO)[C@@H](O)[C@H]2O)[nH]c1=O (stereo not given in full),0
22,Nc1ncnc2c([C@@H]3O[C@H](CO)[C@@H](O)[C@H]3O)[nH]nc12 [FORMYCIN],0
23,O=c1[nH]cnc2c1ccn2[C@@H]1O[C@H](CO)[C@@H](O)[C@H]1O [IMMUNICILLIN H],0
24,NC(=O)c1ncn([C@@H]2O[C@H](CO)[C@@H](O)[C@H]2O)n1 [RIBAVIRIN],0.3
25,N=C(N)c1ncn([C@@H]2O[C@H](CO)[C@@H](O)[C@H]2O)n1 [TARIBAVIRIN],0
26,NC(=O)c1csc([C@@H]2O[C@H](CO)[C@@H](O)[C@H]2O)n1 [TIAZOFURIN],0.2
